Experimental data from article PMC12250965, “Design and Synthesis of Sulfonium and Selenonium Derivatives Bearing 3′,5′-O-Benzylidene Acetal Side Chain Structure as Potent α-Glucosidase Inhibitors” (Molecules, 2025).
Converted amounts (≈) assume the structure as drawn. “Also recorded” adds a separate entry of the source. Like-named read-outs stand apart in the source and are kept apart here.

Legend:
Primary Hepatocyte = experiment: Cytotoxicity against Primary Hepatocyte; assay type: cell-based
Description: (§1) The cytotoxicity of selected sulfonium salts (20a, 20c, and 10) was then evaluated via the 3-[4,5-dimethylthiazol-2-yl]-2,5-diphenyl-tetrazolium bromide (MTT) assay against different cell lines.
(§2) Compounds HELF LO2 Primary Hepatocyte
(§3) (1 picture or pasted object on this page, not shown here)

rat intestinal sucrase [1] = target: T1, rat intestinal sucrase (Rattus norvegicus, UniProt P23739); experiment: Inhibition-kinetic study (Lineweaver–Burk), sucrase; assay type: biochemical; conditions: for type of inhibition, sucrase: Lineweaver–Burk plots
T1 construct: rat small intestinal brush border membrane vesicles were first prepared; from tissue; host or cells: rat small intestine, brush border membrane vesicles
T1 sequence (P23739 whole entry): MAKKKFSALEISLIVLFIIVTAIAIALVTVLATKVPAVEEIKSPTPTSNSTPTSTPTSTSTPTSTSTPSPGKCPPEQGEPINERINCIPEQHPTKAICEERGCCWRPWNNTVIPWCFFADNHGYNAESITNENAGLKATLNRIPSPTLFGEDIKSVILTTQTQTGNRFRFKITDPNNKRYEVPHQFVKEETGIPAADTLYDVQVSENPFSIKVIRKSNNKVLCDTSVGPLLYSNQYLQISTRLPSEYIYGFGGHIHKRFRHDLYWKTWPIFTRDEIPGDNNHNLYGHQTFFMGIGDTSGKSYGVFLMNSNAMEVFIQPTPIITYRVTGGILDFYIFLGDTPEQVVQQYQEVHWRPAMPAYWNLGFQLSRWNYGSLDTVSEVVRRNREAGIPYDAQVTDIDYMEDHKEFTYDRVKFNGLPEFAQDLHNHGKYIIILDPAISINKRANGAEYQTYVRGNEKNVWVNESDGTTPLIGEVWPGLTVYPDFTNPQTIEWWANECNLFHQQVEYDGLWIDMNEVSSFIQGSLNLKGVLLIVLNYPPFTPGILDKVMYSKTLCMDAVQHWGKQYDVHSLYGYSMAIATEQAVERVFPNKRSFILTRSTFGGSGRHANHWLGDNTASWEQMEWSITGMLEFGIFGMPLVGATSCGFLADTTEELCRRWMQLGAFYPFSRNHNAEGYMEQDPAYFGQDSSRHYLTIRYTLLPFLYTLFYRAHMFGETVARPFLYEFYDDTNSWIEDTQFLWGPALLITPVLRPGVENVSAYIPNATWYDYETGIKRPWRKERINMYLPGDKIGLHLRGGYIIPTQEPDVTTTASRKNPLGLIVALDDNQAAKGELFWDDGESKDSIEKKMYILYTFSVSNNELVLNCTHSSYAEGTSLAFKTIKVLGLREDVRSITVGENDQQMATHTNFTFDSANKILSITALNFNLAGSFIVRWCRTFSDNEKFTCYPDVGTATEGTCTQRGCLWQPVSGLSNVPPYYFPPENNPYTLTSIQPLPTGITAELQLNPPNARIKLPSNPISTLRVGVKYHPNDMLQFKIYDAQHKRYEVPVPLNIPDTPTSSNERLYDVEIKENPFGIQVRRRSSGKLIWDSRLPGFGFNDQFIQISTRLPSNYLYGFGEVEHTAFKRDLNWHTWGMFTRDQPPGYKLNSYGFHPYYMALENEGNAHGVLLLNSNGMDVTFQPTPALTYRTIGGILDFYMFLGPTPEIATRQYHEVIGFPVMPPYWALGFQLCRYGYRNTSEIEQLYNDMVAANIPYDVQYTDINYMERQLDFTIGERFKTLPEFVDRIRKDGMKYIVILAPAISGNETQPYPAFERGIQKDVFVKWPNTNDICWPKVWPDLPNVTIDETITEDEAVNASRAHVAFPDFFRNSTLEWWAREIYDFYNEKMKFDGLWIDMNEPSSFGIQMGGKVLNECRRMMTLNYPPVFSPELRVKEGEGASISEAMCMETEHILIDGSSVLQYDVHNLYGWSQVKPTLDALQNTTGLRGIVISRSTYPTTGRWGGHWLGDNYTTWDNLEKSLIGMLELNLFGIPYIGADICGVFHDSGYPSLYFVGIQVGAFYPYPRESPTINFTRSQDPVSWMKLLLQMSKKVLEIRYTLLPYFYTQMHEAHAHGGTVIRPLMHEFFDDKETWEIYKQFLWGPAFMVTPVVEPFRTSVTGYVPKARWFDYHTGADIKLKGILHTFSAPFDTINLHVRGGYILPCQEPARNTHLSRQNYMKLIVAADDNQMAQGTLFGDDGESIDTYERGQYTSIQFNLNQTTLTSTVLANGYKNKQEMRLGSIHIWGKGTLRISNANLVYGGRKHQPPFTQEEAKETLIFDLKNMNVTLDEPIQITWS
Description: (§4) In order to explore the inhibitory mechanism of the α-glucosidase by this family of compounds, enzyme kinetic assays were conducted on 20a, 20c, and 10, followed by a detailed kinetic analysis using the Lineweaver–Burk plots. (Figure 3) The small intestinal brush border membrane vesicles were incubated with varying concentrations of maltose (3.27 mg/mL) for maltase assays and sucrose (52.37 mg/mL) for sucrase assays.
(§5) For kinetic analyses of maltase and sucrase by compounds (20a, 20c, and 10), the enzyme and test samples (1.0 mg/mL for maltase and 0.2 mg/mL for sucrase) were incubated with increasing concentrations of maltose (2.5, 5, 10, 20, 50, 100 μM) and sucrose (5, 10, 20, 50, 100, 1000 μM) at 37 °C for 30 min. The tube was immediately immersed in boiling water for 2 min to stop the reaction, then cooled with water. The glucose concentration was determined by the glucose-oxidase method. […] The Lineweaver–Burk equation follows as: 1/V=Km/Vmax×[…]
(§6) Ki values for each inhibitor were determined by the equation: Ki=[I]×Km/[[…]−Km]

LO2 = experiment: Cytotoxicity against normal cell line LO2; assay type: cell-based; conditions: Homo sapiens, L02
Description: as §1, §2, §3

rat intestinal maltase [2] = experiment: In vitro α-glucosidase inhibition assay, rat intestinal maltase; assay type: biochemical; conditions: for IC50: rat small intestinal brush border membrane vesicles, maltose substrate, mean ± SD (n = 3), read-out: IC50 against maltase
Description: (§7) The testing method previously described was modified and used. Thus, rat small intestinal brush border membrane vesicles were first prepared, and its suspension in 0.1 M maleate buffer (pH = 6.0) was used as small intestinal α-glucosidases of maltase and sucrase. A test compound was dissolved in dimethylsulfoxide (DMSO), and the resulting solution was diluted with 0.1 M maleate buffer to prepare the test compound solution (concentration of DMSO: 10%). The substrate solution in maleate buffer ([…], 50 μL), a test compound solution (25 μL), and the enzyme solution (25 μL) were mixed and incubated at 37 °C for 30 min. After incubation, the solution was immediately heated by boiling water for 2 min to stop the reaction, and the solution was mixed with water (150 μL). Glucose concentration was determined by the glucose-oxidase method. […] The IC50 value was determined graphically by a plot of percent inhibition versus log of the test compound.

[3] = test system: HELF, a human embryonic lung fibroblast cell line; experiment: MTT cytotoxicity assay on HELF cells; assay type: cell-based; conditions: for IC50: Homo sapiens, HELF, read-out: IC50 against normal cell line HELF; for cytotoxicity (MTT assay): different cell lines
Description: as §1
Briefly, the HELF-adherent cells were cultured in a 96-well plate overnight in a CO2 environment at 37 °C. Supernatant was removed, and 100 μL serially diluted compounds with complete medium DMEM supplemented with 10% (v/v) fetal bovine serum, penicillin (100 units/mL), and streptomycin (100 μg/mL) were added to each well. After the incubation, the culture medium was aspirated carefully, and 50 μL of MTT solution (2mg/mL PBS) was added to each well and further incubated for 4h. After this, MTT solution was aspirated, and cells were PBS-washed once, and 100 μL of DMSO was added to dissolve the blue insoluble MTT formazan produced by the action of mitochondrial dehydrogenase. The plate was agitated at room temperature for 15 min and then read at 570 nm by using a microplate reader. The percentage of viable cells was calculated as the relative ratio of optical densities.

rat intestinal maltase [4] = experiment: Inhibition-kinetic study (Lineweaver–Burk), maltase; assay type: biochemical; conditions: for type of inhibition, maltase: Lineweaver–Burk plots; for Ki Maltase (Km = 3.0 mM): small intestinal α-glucosidase, Lineweaver–Burk
Description: as §4, §5, §6

rat intestinal sucrase [5] = target: T1, rat intestinal sucrase; experiment: In vitro α-glucosidase inhibition assay, rat intestinal sucrase; assay type: biochemical
Description: as §7

sucrose-loaded mice = experiment: Sucrose loading test (hypoglycemic effect); assay type: in vivo, ICR mice; conditions: sucrose loading […] p.o.
Description: Research has shown a strong association between the 2 h postprandial blood glucose level and the risk of cardiovascular events, diabetic microvascular complications such as retinopathy, and the progression of macrovascular diseases. […] Considering this underlying pathological process, α-glucosidase inhibitors, which efficiently regulate postprandial glucose fluctuations, hold significant therapeutic promise for alleviating diabetes-related complications. […] Subsequently, doses were reduced to 1.0 mg/kg.
(§8) The animal experimental protocols in this study were approved by the Experimental Animal Center of Shanghai Institute of Materia Medica (Shanghai, China). Male ICR (Institute of Cancer Research) mice (29−33 g) after an overnight fast were used for acute maltose and sucrose loading tests. In the maltose loading test, maltose (2.0 mpk of body weight) and the inhibitors and voglibose were dissolved in distillation−distillation water and administered to the mice via a stomach tube. A control group was loaded with distillation−distillation water. In the sucrose loading test, sucrose (2.5 g/kg of body weight) and the inhibitor miglitol were dissolved in distillation−distillation water and administered to the mice via a stomach tube. A control group was loaded with distillation−distillation water. Blood samples for glucose measurements were obtained from the tail vein at 0, 15, 30, 60, and 120 min after maltose and sucrose loading. The blood glucose levels were measured by a portable kit, StatStrip Xpress (Nova Biomedical Co., Ltd., Waltham, MA, USA). The AUC over was calculated by the trapezoidal method.

maltose-loaded mice = experiment: Maltose loading test (hypoglycemic effect); assay type: in vivo, ICR mice; conditions: maltose loading 2.0 g/kg, 1.0 mpk
Description: A maltose loading test on compounds 10, 20c, neoponkoranol, and positive control (voglibose) was conducted to further evaluate their in vivo hypoglycemic effects against maltase.
as §8, with “In the maltose loading test, maltose (2.0 mpk of body weight) and the inhibitors and voglibose were dissolved in distillation−distillation water and administered to the mice via a stomach tube.” left out

rat intestinal maltase [6] = conditions: read-out: IC50 against maltase (converted), cited from earlier work
rat intestinal sucrase [7] = target: T1, rat intestinal sucrase; conditions: literature value; read-out: IC50 against sucrase (converted); cited from earlier work
[8] = rat small intestinal brush border membrane vesicles, sucrose substrate, mean ± SD (n = 3), read-out: IC50 against sucrase

IC50 (rat intestinal maltase [2]) [nM]	IC50 (rat intestinal sucrase [5]; [8]) [nM]	SMILES	IC50 (Primary Hepatocyte) [nM]	Ki (rat intestinal sucrase [1]) [nM]	type of inhibition, sucrase (rat intestinal sucrase [1])	IC50 (LO2) [nM]	IC50 [3] [nM]	cytotoxicity (MTT assay) [3]	type of inhibition, maltase (rat intestinal maltase [4])	Ki Maltase (Km = 3.0 mM) (rat intestinal maltase [4]) [µg/mL]	IC50 (rat intestinal sucrase [5]) [nM]	Declined Rate of Blood Glucose Levels, 15 min (sucrose-loaded mice; 1.0 mpk) [%]	Declined Rate of Blood Glucose Levels, 30 min (sucrose-loaded mice; 1.0 mpk) [%]	Declined Rate of Blood Glucose Levels, 60 min (sucrose-loaded mice; 1.0 mpk) [%]	Declined Rate of AUC (sucrose-loaded mice; 1.0 mpk) [%]	Declined Rate of Blood Glucose Levels, 60 min (maltose-loaded mice; 1 mg/kg) [%]	IC50 (rat intestinal maltase [6]; literature value ^[a]) [nM]	Declined Rate of Blood Glucose Levels, 15 min (maltose-loaded mice) [%]	Declined Rate of Blood Glucose Levels, 30 min (maltose-loaded mice) [%]	Declined Rate of AUC (maltose-loaded mice; 1 mg/kg) [%]	also measured
		O=[N+]([O-])c1ccccc1C1OC[C@@H](O)[C@@H]([C@H](O)C[S@@+]2C[C@@H](O)[C@H](O)[C@H]2CO)O1 (stereo partly drawn) [compound 10]			fully competitive			non-toxic	fully competitive	0.42		41.8	43.00	39.1	35.2	47.2					Ki (rat intestinal sucrase [1]; small intestinal α-glucosidase, Lineweaver–Burk, read-out: Ki Sucrase (Km = 23.56 mM) (converted)): 693 nM; Declined Rate of Blood Glucose Levels, 15 min (sucrose-loaded mice; 10.0 mpk): 48.0%; Declined Rate of Blood Glucose Levels, 30 min (sucrose-loaded mice; 10.0 mpk): 54.6%; Declined Rate of Blood Glucose Levels, 60 min (sucrose-loaded mice; 10.0 mpk): 52.5%; Declined Rate of AUC (sucrose-loaded mice; 10.0 mpk): 46.6%; Declined Rate of Blood Glucose Levels, 15 min (maltose-loaded mice; 1 mg/kg): 52.8%; Declined Rate of Blood Glucose Levels, 30 min (maltose-loaded mice; 1 mg/kg): 55.0%; Declined Rate of AUC (maltose-loaded mice): 43.5%
1450	350	OCC(CO)N[C@H]1C[C@](O)(CO)[C@@H](O)[C@H](O)[C@H]1O [voglibose]														40.1	1500	49.2	53.7	39.8	
3500		C[C@H]1O[C@H](O[C@H]2[C@H](O)[C@@H](O)[C@@H](O[C@H]3[C@H](O)[C@@H](O)C(O)O[C@@H]3CO)O[C@@H]2CO)[C@H](O)[C@@H](O)[C@@H]1N[C@H]1C=C(CO)[C@@H](O)[C@H](O)[C@H]1O (stereo partly drawn) [acarbose]								1.98 (≈ 3.07 µM)							3200				Declined Rate of Blood Glucose Levels, 15 min (sucrose-loaded mice; 20.0 mpk, 20 mg/kg): 45.7%; Declined Rate of Blood Glucose Levels, 30 min (sucrose-loaded mice; 20.0 mpk, 20 mg/kg): 48.4%; Declined Rate of Blood Glucose Levels, 60 min (sucrose-loaded mice; 20.0 mpk): 44.3%; Declined Rate of AUC (sucrose-loaded mice; 20.0 mpk, 20 mg/kg): 40.5%
420	550	OCC1C(O)C(O)C[S+]1CC(O)C1OC(c2ccccc2F)OCC1O [19n, 1,4-Dideoxy-1,4-{(R)-[5-deoxy-1,3-O-(o-fluorophenylmethylene)-D-arabinitol-5-yl]episulfoniumylidene}-D-arabinitol chloride]																			IC50 (rat intestinal sucrase [7]): 840 nM; IC50 (rat intestinal maltase [6]; literature value): 400 nM

SMILES	IC50 (rat intestinal maltase [2]) [nM]	IC50 (rat intestinal sucrase [5]; [8]) [nM]	IC50 (Primary Hepatocyte) [nM]	Ki (rat intestinal sucrase [1]) [nM]	type of inhibition, sucrase (rat intestinal sucrase [1])	IC50 (LO2) [nM]	IC50 [3] [nM]	cytotoxicity (MTT assay) [3]	type of inhibition, maltase (rat intestinal maltase [4])	Ki Maltase (Km = 3.0 mM) (rat intestinal maltase [4]) [µg/mL]	IC50 (rat intestinal sucrase [5]) [nM]	Declined Rate of Blood Glucose Levels, 15 min (sucrose-loaded mice; 1.0 mpk) [%]	Declined Rate of Blood Glucose Levels, 30 min (sucrose-loaded mice; 1.0 mpk) [%]	Declined Rate of Blood Glucose Levels, 60 min (sucrose-loaded mice; 1.0 mpk) [%]	Declined Rate of AUC (sucrose-loaded mice; 1.0 mpk) [%]	Declined Rate of Blood Glucose Levels, 60 min (maltose-loaded mice; 1 mg/kg) [%]	IC50 (rat intestinal maltase [6]; literature value ^[a]) [nM]	Declined Rate of Blood Glucose Levels, 15 min (maltose-loaded mice) [%]	Declined Rate of Blood Glucose Levels, 30 min (maltose-loaded mice) [%]	Declined Rate of AUC (maltose-loaded mice; 1 mg/kg) [%]	also measured
OC[C@@H]1[C@@H](O)[C@H](O)C[Se@+]1C[C@@H](O)[C@H]1OC(c2cccc(Cl)c2Cl)OC[C@H]1O.[Cl-] (stereo partly drawn) [20a, (1S,2R,3S,4S)-1-((2S)-2-((4S,5R)-2-(2,3-Dichlorophenyl)-5-hydroxy-1,3-dioxan-4-yl)-2-hydroxyethyl)-3,4-dihydroxy-2-(hydroxymethyl)tetrahydro-1H-selenophen-1-ium chloride]	330 ± 150		> 500000	934	fully competitive	> 500000	> 500000	non-toxic	fully competitive	0.94	190 ± 20										
OC[C@@H]1[C@@H](O)[C@H](O)C[Se@+]1C[C@@H](O)[C@H]1OC(c2cc(Cl)ccc2Cl)OC[C@H]1O.[Cl-] (stereo partly drawn) [20c, (1S,2R,3S,4S)-1-((2S)-2-((4S,5R)-2-(2,5-Dichlorophenyl)-5-hydroxy-1,3-dioxan-4-yl)-2-hydroxyethyl)-3,4-dihydroxy-2-(hydroxymethyl)tetrahydro-1H-selenophen-1-ium chloride]	140 ± 50		> 500000	381	fully competitive	> 500000	> 500000	low toxicity; also recorded: non-toxic	fully competitive	0.67	50 ± 20	40.0	40.3	38.2	34.00	43.5		45.8	47.4	40.2	fold greater potency than acarbose, maltase (rat intestinal maltase [2]; IC50 ratio vs acarbose): 25 fold; Declined Rate of Blood Glucose Levels, 15 min (sucrose-loaded mice; 10.0 mpk, 10 mg/kg): 48.6%; Declined Rate of Blood Glucose Levels, 30 min (sucrose-loaded mice; 10.0 mpk, 10 mg/kg): 52.8%; Declined Rate of Blood Glucose Levels, 60 min (sucrose-loaded mice; 10.0 mpk, 10 mg/kg): 48.1%; Declined Rate of AUC (sucrose-loaded mice; 10.0 mpk, 10 mg/kg): 46.4%; fold greater potency than acarbose, sucrase (rat intestinal sucrase [5]; IC50 ratio vs acarbose): 44 fold
